In US5189169A (priority 1991, dated 1993):
Values joined by “and” are separate entries in the source; they are usually repeats but may differ in a detail not shown here. Equal entries are not always repeated.

Columns and labels:
[1] = tested on: three broadleaf weeds: wild mustard, redroot pigweed and curly dock; assay: Post-emergence herbicidal activity, broadleaf weeds (Table III); assay type: in vivo, Brassica kaber, Amaranthus retroflexus, Rumex crispus; conditions: 2.24 kg/ha, 2-3 weeks after treatment
Description: (§1) The herbicidal effect was observed by comparing the extent of weed control in test flats treated with the compounds against that occurring in similar non-treated control flats. All were applied at 3.57 lb/A (4 kg/ha) to pre-emergence and post-emergence screening flats. An 80 gal/A (748.3 1/ha) spray volume was utilized. Post-emergence flats were seeded 12 days prior to treatment. Pre-emergence flats were seeded one day prior to treatment. Overhead watering of pre-emergence flats and soil surface watering of post-emergence flats, so as to avoid wetting the foliage, were carried out for the duration of the test.
(§2) Weed seeds were planted in a flat at a seed depth of 0.5 inch (1.3 cm). Soil for flats was prepared using loam soil fortified with 17-17-17 fertilizer (N-P2 O5 -K2 O on a weight basis) and Captan 80W fungicide. The test weeds were as follows:
(§3) The spray solutions were prepared by dissolving 240 mg of test compound in 20 ml of acetone containing 1% polyoxyethylene sorbitan monolaurate emulsifier, then adding 20 ml of water to the resulting solution. The spray solutions were applied using a linear spray table. Pre-emergence flats are raised to the level of the post-emergence foliage canopy by setting the flats on a wooden block.
(§4) The degree of weed control was visually assessed and recorded as percentage control compared to the growth of the same species in an untreated check flat of the same age. The rating scale ranges from 0 to 100%, where 0 equals no effect with plant growth equal to the untreated control, and 100 equals complete kill.
(§5) Compounds 68 to 145 in Table I were tested generally similarly to Compounds No. 1 to 67 with the following differences: The rate of application was 2 lb/acre (2.24 kg/ha), no 6-day evaluations were made, and the weeds were:
(§6) Three broadleaf weeds: wild mustard, redroot pigweed (Amaranthus retroflexus) and curly dock (Rumex crispus).
(§7) Ratings were taken 2-3 weeks after treatment.

[2] = tested on: four grassy weeds: wild oat, watergrass, green foxtail and crabgrass; assay: Pre-emergence herbicidal activity, grassy weeds (Table III); assay type: in vivo; conditions: 2.24 kg/ha, 2-3 weeks after treatment
Description: as §1, §2, §3, §4, §5
(§8) Four grassy weeds: wild oat, watergrass, green foxtail and crabgrass (Digitaria sanguinalis);
as §7

[3] = tested on: three broadleaf weeds: wild mustard, redroot pigweed and curly dock; assay: Pre-emergence herbicidal activity, broadleaf weeds (Table III); assay type: in vivo, Brassica kaber, Amaranthus retroflexus, Rumex crispus; conditions: 2.24 kg/ha, 2-3 weeks after treatment
Description: as §1, §2, §3, §4, §5, §6, §7

[4] = tested on: four grassy weeds: wild oat, watergrass, green foxtail and crabgrass; assay: Post-emergence herbicidal activity, grassy weeds (Table III); assay type: in vivo; conditions: 2.24 kg/ha, 2-3 weeks after treatment
Description: as §1, §2, §3, §4, §5, §8, §7

[5] = tested on: three broadleaf weeds (morning glory, mustard, velvetleaf); parameters: species or system Ipomoea purpurea, Brassica kaber, Abutilon theophrasti; conditions: in vivo
[6] = tested on: three broadleaf weeds (morning glory, mustard, velvetleaf); parameters: species or system Ipomoea purpurea, Brassica kaber, Abutilon theophrasti; conditions: in vivo; remark: listed apart in the source
yellow nutsedge [7] = tested on: yellow nutsedge; parameters: species or system Cyperus esculentus; conditions: in vivo
yellow nutsedge [8] = tested on: yellow nutsedge; parameters: species or system Cyperus esculentus; conditions: in vivo; remark: listed apart in the source
[9] = tested on: three grassy weeds (wild oat, watergrass, foxtail); parameters: species or system Avena fatua, Echinochloa crusgalli, Setaria viridis; conditions: in vivo

| SMILES | % Control, Post-Emergence, BL Avg. [1] [%] | % Control, Pre-Emergence, GR Avg. [2] [%] | % Control, Pre-Emergence, BL Avg. [3] [%] | % Control, Post-Emergence, GR Avg. [4] [%] | % Control, Post-emergence, BL avg. [5] | % Control, Pre-emergence, BL avg. [6] [%] | % Control, Pre-emergence, NS (yellow nutsedge [7]) [%] | % Control, Post-emergence, NS (yellow nutsedge [8]) [%] | % Control, Pre-emergence, GR avg. [9] [%] |
| --- | --- | --- | --- | --- | --- | --- | --- | --- | --- |
| CCCCN(CCCC)P(=O)(SCCC)N(C)C (centres unmarked) [Compound 108] | 98 | 15 | 13 | 76 |  |  |  |  |  |
| CCCCN(CC)P(=O)(SCCC)N(CCC)CCC (centres unmarked) [Compound 89] | 100 | 0 | 7 | 90 |  |  |  |  |  |
| CCCCSP(=O)(N(CC)CC)N(CCCC)CCCC (centres unmarked) [Compound 86] | 99 | 5 | 7 | 77 |  |  |  |  |  |
| CCCCN(CCCC)P(=O)(SC(C)C)N(C)C (centres unmarked) [Compound 109] | 98 | 23 | 20 | 85 |  |  |  |  |  |
| CCCN(CCC)P(=O)(SCC)N(C)c1ccccc1 (centres unmarked) [Compound 119] | 67 | 0 | 0 | 30 |  |  |  |  |  |
| CCCCN(CCCC)P(=O)(SC(C)(C)C)N(CCC)CCC (centres unmarked) [Compound 128] | 80 | 0 | 0 | 38 |  |  |  |  |  |
| CCCCSP(=O)(N(CC)CC)N(CC)CC [Compound 69] | 87 | 13 | 0 | 30 |  |  |  |  |  |
| CCCCN(CCCC)P(=O)(SCC)N(CCCC)CCCC [Compound 82] | 99 | 0 | 0 | 75 |  |  |  |  |  |
| CCCN(CCC)P(=O)(SCC)N1CC(CC)CCC1C (centres unmarked) [Compound 96] | 67 | 0 | 10 | 65 |  |  |  |  |  |
| CCCCN(CC)P(=O)(SCC)N(CCC)CCC (centres unmarked) [Compound 88] | 96 | 0 | 0 | 89 |  |  |  |  |  |
| CCCCCCSP(=O)(N(CC)CCCC)N(CCC)CCC (centres unmarked) [Compound 135] | 96 | 0 | 10 | 54 |  |  |  |  |  |
| CCCCCSP(=O)(N(CCC)CCC)N(CCC)CCC [Compound 131] | 93 | 0 | 23 | 58 |  |  |  |  |  |
| C=CCN(CC=C)P(=O)(SCCC)N(CCC)CCC (centres unmarked) [Compound 76] | 99 | 0 | 0 | 61 |  |  |  |  |  |
| CCCN(CCC)P(=O)(SC(C)(C)CC)N(CCC)CCC [Compound 81] | 83 | 0 | 0 | 66 |  |  |  |  |  |
| C=CCN(CC=C)P(=O)(SCC)N(CCC)CCC (centres unmarked) [Compound 75] | 98 | 0 | 0 | 62 |  |  |  |  |  |
| CCCCN(CCCC)P(=O)(SC(C)CC)N(CCC)CCC (centres unmarked) [Compound 127] | 99 | 0 | 0 | 59 |  |  |  |  |  |

| SMILES | % Control, Post-Emergence, BL Avg. [1] [%] | % Control, Pre-Emergence, GR Avg. [2] [%] | % Control, Pre-Emergence, BL Avg. [3] [%] | % Control, Post-Emergence, GR Avg. [4] [%] | % Control, Post-emergence, BL avg. [5] | % Control, Pre-emergence, BL avg. [6] [%] | % Control, Pre-emergence, NS (yellow nutsedge [7]) [%] | % Control, Post-emergence, NS (yellow nutsedge [8]) [%] | % Control, Pre-emergence, GR avg. [9] [%] |
| --- | --- | --- | --- | --- | --- | --- | --- | --- | --- |
| CCCCN(CCCC)P(=O)(SCCC)N(CC)CC (centres unmarked) [Compound 85] | 99 | 12 | 10 | 89 |  |  |  |  |  |
| CCCCSP(=O)(N(CCC)CCC)N(CCCC)CCCC (centres unmarked) [Compound 126] | 86 | 0 | 0 | 61 |  |  |  |  |  |
| CCCCN(CCCC)P(=O)(SCC)N(CC)CC (centres unmarked) [Compound 84] | 99 | 5 | 13 | 75 |  |  |  |  |  |
| C=CCSP(=O)(N(CCC)CCC)N(CCCC)CCCC (centres unmarked) [Compound 129] | 86 | 0 | 0 | 69 |  |  |  |  |  |
| CCCCN(CCCC)P(=O)(SC(C)CC)N(C)C (centres unmarked) [Compound 111] | 99 | 10 | 10 | 72 |  |  |  |  |  |
| CCCCSP(=O)(N(CC)CCCC)N(CCC)CCC (centres unmarked) [Compound 90] | 100 | 0 | 7 | 86 |  |  |  |  |  |
| CCCCN(CCCC)P(=O)(SC(C)C)N(CC)CC (centres unmarked) [Compound 87] | 99 | 5 | 12 | 62 |  |  |  |  |  |
| CCCCN(CC)P(=O)(SC(C)C)N(CCC)CCC (centres unmarked) [Compound 91] | 99 | 0 | 3 | 84 |  |  |  |  |  |
| CCCCCCSP(=O)(N(CCC)CCC)N(CCC)CCC [Compound 116] | 96 | 0 | 10 | 53 |  |  |  |  |  |
| C=CCN(CC=C)P(=O)(SCCCC)N(CCC)CCC (centres unmarked) [Compound 77] | 99 | 0 | 0 | 53 |  |  |  |  |  |
| CCCCN(CCCC)P(=O)(SC(C)CC)N(CC)CC (centres unmarked) [Compound 102] | 99 | 30 | 40 | 70 |  |  |  |  |  |
| CCCN(CCC)P(=O)(Sc1ccccc1)N(CCC)CCC [Compound 78] | 98 | 0 | 0 | 50 |  |  |  |  |  |
| CCCCN(CCCC)P(=O)(SC(C)C)N(CCC)CCC (centres unmarked) [Compound 125] | 70 | 0 | 0 | 59 |  |  |  |  |  |
| CCCSP(=O)(N(CCC)CCC)N(C)c1cc(Cl)ccc1Cl (centres unmarked) [Compound 34] |  |  |  |  | 80% and 93% | 0 | 0 | 0 | 0 |
| CCCSP(=O)(N(CCC)CCC)N(C)c1ccc(OC)cc1C (centres unmarked) [Compound 65] |  |  |  |  | 70% and 76% | 0 | 0 | 0 | 0 |
| CCCSP(=O)(N(CCC)CCC)N(C)c1cc(F)ccc1C (centres unmarked) [Compound 67] |  |  |  |  | 95% and 100% | 16 | 0 | 0 | 0 |
